Literature values as cited in US12357624B2, “Low dose pridopidine for Parkinson's Disease and other diseases associated with parkinsonism” (PRILENIA NEUROTHERAPEUTICS LTD., priority 2019, dated 2025).

Tested on: B104 neuroblastoma cell line
Settings: NE100 1 μM co-incubated with pridopidine; cited from earlier work

**Q.** For `CCCN(CCC)CCc1ccc(OC)c(OCCc2ccccc2)c1` [NE100, reference compound], which BDNF secretion is on record?
**A.** BDNF secretion was inhibited
